Assay: Scavenging of cigarette smoke radicals in decalin, read out by DHR 6G fluorescence
Format: biochemical
Procedure: Tests were conducted to study the effectiveness of methanofullerene derivatives against radicals present in cigarette smoke (predominantly peroxyl radical). The cigarette smoke was bubbled through a glass frit into a solvent (decalin) in which radical scavengers were dissolved. The smoke then exited this solvent and was passed through a second flask, in which a fluorescent probe that fluoresces upon oxidation by radicals was used (Dihydrorhodamine 6G (DHR 6G), purchased from Molecular Probes). The variation of fluorescent signal corresponds directly to the radical content of the cigarette smoke, and thus a measure of the reduction of radicals by the radical scavenger is measured. Signals were measured every 10 seconds.
Tests were conducted to study the sensitivity of the test apparatus in Example 1 to varying concentrations of Vitamin E as a radical scavenger to scavenge radicals present in cigarette smoke (predominantly peroxyl radical). The cigarette smoke was bubbled through a cylindrical, coarse glass frit into a solvent (decalin) in which radical scavengers were dissolved. The smoke then exited this solvent and was passed through a second flask, in which a fluorescent probe that fluoresces upon oxidation by radicals was used (Dihydrorhodamine 6G (DHR 6G), purchased from Molecular Probes). The variation of fluorescent signal corresponds directly to the radical content of the cigarette smoke, and thus a measure of the reduction of radicals by the radical scavenger is measured. Signals were measured every 10 seconds.

Compound | difference in fluorescence signal / radical scavenging efficiency versus Vitamin E (300 μM PCBM versus 300 μM Vitamin E) | reduction of radicals by the radical scavenger (fluorescent signal of DHR 6G) (scavenger dissolved in decalin, comparison with Vitamin E under identical conditions, FIG. 6A) | change of fluorescent signal on doubling the scavenger concentration (150 μM versus 300 μM in decalin, FIG. 6B)
COC(=O)CCCC1(c2ccccc2)C23C=Cc4cc5c6c7c4C21c1c2c4c(cc8ccc9cc(c6c6c9c8c4c6c17)C5)CC2=C3 (stereo not drawn) [PCBM, [6,6]-phenyl C61-butyric acid methyl ester] | very large difference in radical scavenging efficiency | scavenges significantly more of the radicals present in the cigarette smoke than Vitamin E | 
Vitamin E [reference compound] |  |  | very small deflection
